Reference: patent publication US5480894A, “3-hydroxypyridin-4-one derivatives as chelating agents” (British Technology Group Limited, priority 1992, dated 1996)
Where “and” joins values, the source holds several entries; their conditions need not be identical. Equal entries are not always repeated. Where two headings read alike, the source gives them in different places.

Assay: Partition coefficient Kpart between n-octanol and aqueous tris hydrochloride
Type: physicochemical
Conditions: n-octanol / aqueous tris hydrochloride (20 mM, pH 7.4); for logD: octanol/tris hydrochloride 20 mm
Method: The partition coefficients of four or five samples of each of the compounds of Examples 2 and 4 were measured using essentially the procedure described in Example 25 of UK Patent No. 2 136 807. For comparative purposes a similar measurement was made for the compound 1-(2-acetoxyethyl)-2-ethyl-3-hydroxypyridin-4-one which was prepared by an analogous procedure to that of Example 5 using acetyl chloride in place of isobutyryl chloride. The results obtained for the partition coefficient Kpart, being the ratio (concentration of compound in n-octanol)/concentration of compound in aqueous phase on partition between n-octanol and aqueous tris hydrochloride (20 mM, pH 7.4), are shown in the Table.

[1] = pH 7.4, mean of four or five samples, read-out: partition coefficient Kpart, Mean ± S.E. (converted)

Q: Which results are given for `CCc1c(O)c(=O)ccn1CCOC(=O)C(C)C` [Example 4, 2-ethyl-3-hydroxy-1-[2-(α-methylpropionyloxy)ethyl]pyridin-4-one]?
A: partition coefficient Kpart (concentration in n-octanol / concentration in aqueous phase), individual samples (individual samples 1-5, listed as (CH3)2 CHCOO): 4.541 and 4.224 and 4.797; logD [1]: 0.667; logD (individual samples 1-5, read-out: partition coefficient Kpart (concentration in n-octanol / concentration in aqueous phase), individual samples (converted)): 0.699

Q: With `CCc1c(O)c(=O)ccn1CCOC(=O)C(C)(C)C` [Example 2, 2-ethyl-3-hydroxy-1-(2-pivaloyloxyethyl)pyridin-4-one] as the compound, how does the “partition coefficient Kpart (concentration in n-octanol / concentration in aqueous phase), individual samples” value (individual samples 1-5, listed as (CH3)3 CCOO) read?
A: 5.104 and 7.992 and 3.870 and 6.742 and 6.855

Q: What about the “partition coefficient Kpart, Mean ± S.E.” value (mean of four or five samples) of the same compound?
A: 6.113 ± 1.622

Q: With `CCc1c(O)c(=O)ccn1CCOC(C)=O` [CH3 COO, 1-(2-acetoxyethyl)-2-ethyl-3-hydroxypyridin-4-one, reference compound] as the compound, how does the “partition coefficient Kpart (concentration in n-octanol / concentration in aqueous phase), individual samples” value (individual samples 1-5) read?
A: 1.500 and 0.948 and 0.940 and 0.962

Q: What about the logD [1] of the same compound?
A: 0.0366
